The assay has as its system antibodies directed against the HCV Core, NS3 and NS4 proteins. As to the kind of experiment: Vidas anti-HCV antibody immunoenzymatic test (Operating Mode 1) carried out with interfering peptide added. Also noted: species or system human; key to Index: signal / standard S1 value; index ≥1 positive, <1 negative. As to conditions: for Index: pos indices ≧1. As for the experimental part: The disposable tip (SPR®) acts both as a solid phase and as a pipetting system. The surface of the tip is coated with antigens for the detection of antibodies directed against the HCV Core, NS3 and NS4 proteins. In a first step, the sample is diluted, and then suctioned up and down inside the tip. The anti-HCV antibodies present in the sample will bind to the antigens present inside the tip. Washing steps remove the unbound compounds. During the second step, (mouse) anti-human immunoglobulin (anti-IgG) monoclonal IgGs in Fab′ form, conjugated to recombinant alkaline phosphatase, are suctioned up and down inside the tip and will bind to the anti-HCV human Igs from the sample tested, bound to the antigens of the solid phase. Washing steps again remove the unbound compounds. […] The value of the fluorescence signal is proportional to the concentration of the antibody present in the sample. At the end of the test, the results are calculated automatically in the form of an index by the instrument, by dividing the value obtained by the value of the standard S1 brought back to 1 (value stored in the instrument). Thus, a sample of which the index is greater than or equal to 1 is considered to be positive by the immunoenzymatic test (presence of anti-HCV antibodies) and a sample of which the index is less than 1 is considered to be negative (absence of anti-HCV antibodies). In the paragraphs which follow, this HCV-antibody assay procedure will be referred to as “Operating Mode 1”, which corresponds to the assaying of anti-HCV antibodies without interfering peptide.
Several hundred serum samples, negative for HCV infection and originating from the Rhône-Alpes “Centres de Transfusion Sanguine” [Blood Banks], were screened in order to identify the samples which posed an interference problem. To do this, the samples were assayed according to Operating Mode 1 using the Vidas automated device. Only the sera that were positive according to Operating Mode 1 (index ≧1) were selected.
Such a difference between the result of Operating Mode 1 and that of the negative status established by the “Centres de Transfusion Sanguine” [Blood Banks] makes it possible to select the false-positive sera posing an interference problem.
Table 1 gives, for seven sera posing an interference problem and for the positive control C1, the results of assays carried out according to “Operating Mode 1” with or without the presence of the peptide V7E (SEQ ID No 2) or of the peptide Y7E (SEQ ID No 1). These peptides were added at a concentration of 5 μg/ml during the first step of the immunoenzymatic test protocol which corresponds to the dilution of the sample to be tested and the incubation thereof with the antigens present on the solid phase.
Likewise, table 2 gives, for two other sera posing an interference problem and for the positive control, the results of assays carried out according to Operating Mode 1 of the anti-HCV antibody detection protocol, with or without the presence of the peptide E8E (SEQ ID No 4), of the peptide A8E (SEQ ID No 3), or else of the peptide A6M (SEQ ID No 9). These peptides were added at a concentration of 1 μg/ml during the first step of the immunoenzymatic test protocol, which corresponds to the dilution of the sample to be tested, and the incubation thereof with the antigens present on the solid phase.

[1] abbreviates: false-positive serum 295 (sample with interference), peptide 1 μg/ml in first step.
Setting [2] is: false-positive serum F25 (sample with interference), peptide 1 μg/ml in first step.
The mark [3] stands for this setting: positive control C1 (commercial serum pool), peptide 1 μg/ml in first step.
Where [4] appears, read: two sera posing an interference problem, peptide 1 μg/ml.
Where [5] appears, read: false-positive serum 175 1811 (sample with interference), peptide 5 μg/ml in first step.
The mark [6] stands for this setting: false-positive serum 284 2408 (sample with interference), peptide 5 μg/ml in first step.
Setting [7] is: false-positive serum 498 (sample with interference), peptide 5 μg/ml in first step.
Setting [8] is: false-positive serum 801 1409 (sample with interference), peptide 5 μg/ml in first step.
The mark [9] stands for this setting: false-positive serum F53 3009 (sample with interference), peptide 5 μg/ml in first step.
The mark [10] stands for this setting: false-positive serum H48 (sample with interference), peptide 5 μg/ml in first step.
The mark [11] stands for this setting: false-positive serum M43 (sample with interference), peptide 5 μg/ml in first step.
Setting [12] is: positive control C1 (commercial serum pool), peptide 5 μg/ml in first step.
Where [13] appears, read: seven sera posing an interference problem, peptide 5 μg/ml.

As for “AQKRLAPYIE (Streptoccus) [A8E, amino acids 64-73 of Streptococcus pneumoniae ribosomal small subunit methyltransferase H protein]”, the Index amounted to 0.95 under setting [1], 0.41 under setting [2] and 3.02 under setting [3]. Moreover, the “sera in which the interference is neutralized” value (“sera” for short) under setting [4] is recorded as 2/2.

“APYIEKGM (Streptococcus) [A6M, Streptococcus pneumoniae peptide, not according to the invention, used as a negative control, reference compound]”: the Index is given as 1.04 under setting [1], 2.90 under setting [2] and 3.05 under setting [3]. Moreover, the “sera” value under setting [4] was “does not make it possible to neutralize the interference, in any of the sera”.

Consider “VSPTHYVPE (HCV) [V7E, amino acids 218-226 of the NS4B protein of HCV]”, for which the Index reads like this: under setting [5], 0.49; under setting [6], 1.51; under setting [7], 0.35; under setting [8], 1.04; under setting [9], 0.39; under setting [10], 1.17. Also, the Index by setting is: under setting [11], 0.42; under setting [12], 3.06. The “sera” value under setting [13] is recorded as 4/7.

Take “ECSQHLPYIE (HCV) [E8E, amino acids 53-54 of HCV NS4A fused to amino acids 1-8 of HCV NS4B]”: the Index is recorded as 0.90 under setting [1], 0.85 under setting [2] and 2.92 under setting [3]. Moreover, under setting [4], the “sera” value is on record as 2/2.

On to YSPTHYVPE (staphylococcus) [Y7E], for which the Index runs as follows: under setting [5], 0.47; under setting [6], 0.86; under setting [7], 0.14; under setting [8], 0.71; under setting [9], 0.32; under setting [10], 0.88. The Index reads like this: under setting [11], 0.17; under setting [12], 3.02. The “sera” value under setting [13] is “totally neutralize the interference in all the sera”.

The values are drawn from patent publication US9606120B2, “Interfering peptides and method for detecting microorganisms” (BIOMÉRIEUX, priority 2012, dated 2017).
